Measured values reported in US20200171034A1, “Methods Of Treating Follicular Lymphoma” (Janssen Biotech, Inc., priority 2018, published 2020).

Tested on: relapsed/refractory (R/R) follicular lymphoma (FL)
Test: DAWN study (NCT01779791): phase 2, single-arm ibrutinib monotherapy
Assay type: in vivo, humans
Details: patients with R/R FL, ibrutinib 560 mg once daily
From the text: Detailed methodology for the DAWN trial is published in Gopal A K, et al. J Clin Oncol. 2018; 36:2405-2412. […] The primary end point was overall response rate (ORR=complete response [CR]+partial response [PR]), assessed by an independent review committee using the International Working Group Revised Response Criteria for Malignant Lymphoma.

C=CC(=O)N1CCC[C@@H](n2nc(-c3ccc(Oc4ccccc4)cc3)c3c(N)ncnc32)C1 [ibrutinib, Ibrutinib]
duration of response (median) in responders: 19.4 months
overall response rate (ORR = complete response + partial response) (independent review committee, 95% CI 13.7-29.7): 20.9%
